Test results: patent US12312334B2, “Quinoxaline compounds and uses thereof” (BOARD OF REGENTS OF THE UNIVERSITY OF NEBRASKA, priority 2017, dated 2025)
Where two headings read alike, the source gives them in different places. Blank lines part the entries; values can stand above or below the compound they belong to.

Columns and labels:
[1] = tested on: TNFα induced NFκB transcription activity; assay: cell-based TNFα induced IKKβ mediated NFκB activation luciferase reporter assay; set-up: TNFα induced NFκB transcription activity % Inhibition: concentration or dose not given beside the values
Excerpt: Compound 13-197 has a structure:

[2] = tested on: HCT116; assay: growth inhibition assay, colon cancer cell line HCT116; type: cell-based; conditions: Homo sapiens, HCT-116
[3] = tested on: SW620; assay: growth inhibition assay, colon cancer cell line SW620; type: cell-based; conditions: Homo sapiens, SW-620
[4] = tested on: HT29; assay: growth inhibition assay, colon cancer cell line HT29; type: cell-based; conditions: Homo sapiens, HT-29
[5] = tested on: DLD1; assay: growth inhibition assay, colon cancer cell line DLD1; type: cell-based; conditions: Homo sapiens, DLD-1
[6] = tested on: MiaPaCa2; assay: growth inhibition assay, pancreatic cancer cell line MiaPaCa2; type: cell-based; conditions: Homo sapiens, MIA PaCa-2
[7] = tested on: AsPC1; assay: growth inhibition assay, pancreatic cancer cell line AsPC1; type: cell-based; conditions: Homo sapiens
[8] = tested on: Suit2; assay: growth inhibition assay, pancreatic cancer cell line Suit2; type: cell-based; conditions: SUIT-2
[9] = tested on: S2013; assay: growth inhibition assay, pancreatic cancer cell line S2013; type: cell-based
[10] = in-vitro metabolic stability in human liver S9 fraction; type: in vitro ADME; conditions: for microsomal CLint / half-life: human liver S-9 fraction; for microsomal CLint: read-out: intrinsic clearance
Method: (§1) A metabolic stability profile, as well as oral and intravenous dose pharmacokinetics in mice was characterized. The in-vitro metabolic stability of 39-100 was determined using human liver S9 fraction (XenoTech, LLC, USA). 7-hydroxycoumarin (glucuronidation and sulphation) and testosterone (CYP hydroxylation) were used as positive controls for in-vitro metabolic stability study. The oral and intravenous dose pharmacokinetic studies were performed in Balb/c mice. The oral dose of 39-100 was 10 mg/kg, and the intravenous dose was 1 mg/kg. Sample analysis was performed by liquid chromatography-tandem mass spectrometry (SCIEX QTRAP 4000 LC-MS/MS System). For metabolite identification, samples were acquired by MRM-information dependent acquisition-enhanced product ion (MRM-IDA-EPI) scans, enhanced mass spectrometry-IDA-EPI scans, neutral loss, and precursor ion scan methods. Metabolites of 39-100 were characterized by Analyst 1.6.2, LightSight 2.3.1, and ChemDraw Professional-15 software.

[11] = oral and intravenous dose pharmacokinetics in mice; type: in vivo, Balb/c mice; conditions: for MRT inf: read-out: MRT 0-∞
Method: as §1

[12] = tested on: HCT116 cancer cells; assay: HCT116 colon tumor xenograft growth inhibition study; type: in vivo; conditions: HCT116 xenograft in athymic mice, 40 mg/kg for 2 weeks, preliminary results
Method: Colon tumor xenografts were established in immune deficient (athymic: 4-6 weeks old) mice. Briefly, exponentially growing (70-80% confluent) HCT116 cancer cells were trypsinized, counted using a hemocytometer and stained with trypan blue to ensure only healthy cells are counted. Cells in suspension were added to matrigel and 4×10^6 cells/100 μl of volume were injected into the flanks of mice. Post-injection, mice were monitored on a daily basis to determine tumor growth. The tumor onset and progression was examined through palpation. Tumor diameter was measured using digital calipers and the tumor volume (in mm^3) was calculated using the formula=(width)^2×length/2. Mice were randomly separated into two groups and were dosed with either vehicle or 40 mg/kg of 39-100 for 2 weeks.

[13] = Balb/c, mouse, plasma, Oral: 10 mg/kg

GI50 [2]: 8.8 ± 2.2 µM | GI50 [3]: 9.2 ± 2.5 µM | GI50 [4]: 6.7 ± 1 µM | GI50 [5]: 10.9 ± 2.1 µM | GI50 [6]: 10 ± 2.2 µM | GI50 [7]: 12 ± 4 µM | GI50 [8]: 10.7 ± 0.5 µM | GI50 [9]: 9.1 ± 1.1 µM | microsomal CLint ([10]; human liver S9 fraction): 12.2 µL/min/mg | half-life [10]: 57 min
Compound: O=C(Nc1ccc(Br)cc1)Nc1ccc2nc(-c3ccco3)c(-c3ccco3)nc2c1 [13-197, reference compound]
TNFα induced NFκB transcription activity % Inhibition [1]: 32.9 ± 3.4%

Compound: O=C(Nc1ccc(Br)cc1)Nc1ccc2ncc(-c3cn[nH]c3)nc2c1 [39-09D]
TNFα induced NFκB transcription activity % Inhibition [1]: 48.4 ± 2.8%

Compound: Cn1cc(-c2cnc3ccc(NC(=O)Nc4ccc(Br)cc4)cc3n2)cn1 [39-055]
TNFα induced NFκB transcription activity % Inhibition [1]: 71.0 ± 4.8%

Compound: Cn1cc(-c2cnc3cc(NC(=O)Nc4ccc(Br)cc4)ccc3n2)cn1 [39-061]
TNFα induced NFκB transcription activity % Inhibition [1]: 40.7 ± 2.9%

Compound: Cn1ccc(-c2cnc3ccc(NC(=O)Nc4ccc(Br)cc4)cc3n2)n1 [39-062]
TNFα induced NFκB transcription activity % Inhibition [1]: 33.0 ± 5.7%

Compound: Cn1cc(-c2cnc3ccc(NC(=O)Nc4ccc(F)cc4)cc3n2)cn1 [39-066]
TNFα induced NFκB transcription activity % Inhibition [1]: 42.9 ± 9.8%

Compound: Cn1cc(-c2cnc3ccc(NC(=O)Nc4ccccc4)cc3n2)cn1 [39-071]
TNFα induced NFκB transcription activity % Inhibition [1]: 31.2 ± 7.6%

Compound: Cn1ccc(-c2cnc3cc(NC(=O)Nc4ccc(Br)cc4)ccc3n2)n1 [39-072]
TNFα induced NFκB transcription activity % Inhibition [1]: 46.8 ± 4.4%

Compound: Cn1cc(-c2cnc3ccc(NC(=O)Cc4ccc(Br)cc4)cc3n2)cn1 [39-076]
TNFα induced NFκB transcription activity % Inhibition [1]: 36.1 ± 8.8%

Compound: Cc1nn(C)cc1-c1cnc2ccc(NC(=O)Nc3ccc(Br)cc3)cc2n1 [39-077]
TNFα induced NFκB transcription activity % Inhibition [1]: 37.7 ± 5.1%

Compound: Cn1cc(-c2cnc3ccc(NC(=O)Nc4ccc([N+](=O)[O-])cc4)cc3n2)cn1 [39-084]
TNFα induced NFκB transcription activity % Inhibition [1]: 36.4 ± 6.3%

Compound: Cc1ccc(NC(=O)Nc2ccc3ncc(-c4cnn(C)c4)nc3c2)cc1 [39-085]
TNFα induced NFκB transcription activity % Inhibition [1]: 53.0 ± 2.9%

Compound: Cn1cc(-c2cnc3ccc(NC(=O)Nc4cccc(Br)c4)cc3n2)cn1 [39-086]
TNFα induced NFκB transcription activity % Inhibition [1]: 88.9 ± 1.8%

GI50 [2]: 3.8 ± 1.2 µM | GI50 [3]: 8.4 ± 2.3 µM | GI50 [4]: 3.1 ± 0.2 µM | GI50 [5]: 8.4 ± 2.3 µM | GI50 [6]: 3.2 ± 0.3 µM | GI50 [7]: 7.2 ± 2.6 µM | GI50 [8]: 4.5 ± 0.4 µM | GI50 [9]: 4.1 ± 0.5 µM | parent compound present ([10]; human liver S9 fraction, 60-minute incubation): More than 85% | microsomal CLint ([10]; human liver S9 fraction): 1.59 µL/min/mg | half-life [10]: 436.4 min | MRT inf ([11]; Balb/c, mouse, plasma, IV: 1 mg/kg): 1.4 h | half-life ([11]; Balb/c, mouse, plasma, IV: 1 mg/kg, read-out: t0.5 (elimination half-life) (converted)): 234 min | AUC(0-t) [11, 13]: 12400 ng·h/mL | CL/F [11, 13]: 13.3 mL/min/kg | Cmax [11, 13]: 2330 ng/mL | Tmax [11, 13]: 2 h | bioavailability ([11]; Balb/c, mouse, plasma, Oral: 10 mg/kg vs IV: 1 mg/kg): 208% | MRT inf [11, 13]: 3.9 h | AUC(0-inf) ([11]; Balb/c, mouse, plasma, intravenous dose 1 mg/kg, read-out: area under the curve (AUC0-∞)): 598 ng·h/mL | MRT ([11]; Balb/c, mouse, plasma, intravenous dose 1 mg/kg, read-out: mean residence time (MRT)): 1.4 h | AUC(0-inf) ([11]; Balb/c, mouse, plasma, oral administration 10 mg/kg, read-out: AUC0-∞): 12400 ng·h/mL | MRT ([11]; Balb/c, mouse, plasma, oral administration 10 mg/kg, read-out: MRT): 3.9 h | C0-iv ([11]; IV: 1 mg/kg): 709.9 ng/mL | CL/F (clearance) ([11]; IV: 1 mg/kg): 1.67 L/h/kg | λZ ([11]; IV: 1 mg/kg): 0.177 h⁻¹ | t0.5 ([11]; Oral: 10 mg/kg): 2.35 h | λZ ([11]; Oral: 10 mg/kg): 0.295 h⁻¹
Compound: Cn1cc(-c2cnc3ccc(NC(=O)Nc4ccc(F)c(Br)c4)cc3n2)cn1 [39-100]
TNFα induced NFκB transcription activity % Inhibition [1]: 83.8 ± 1.6% | potency relative to 13-197 ([1]; all the assays tested (FIG. 1 and FIG. 2)): more potent than 13-197 | metabolites detected ([10]; metabolite identification by LC-MS/MS, matrix not stated): In very small fraction glucuronidation, sulfonation, and demethylation | colon tumor growth [12]: reduced colon tumorgrowth

Compound: Cn1cc(-c2cnc3ccc(NC(=O)Nc4ccccc4Br)cc3n2)cn1 [39-102]
TNFα induced NFκB transcription activity % Inhibition [1]: 62.4 ± 1.2%

Compound: Cn1cc(-c2cnc3ccc(NC(=O)Nc4ccc(F)c(C(F)(F)F)c4)cc3n2)cn1 [42-062]
TNFα induced NFκB transcription activity % Inhibition [1]: 83.7 ± 0.3%

Compound: Cn1cc(-c2cnc3ccc(NC(=O)Nc4cccc(Cl)c4)cc3n2)cn1 [42-064]
TNFα induced NFκB transcription activity % Inhibition [1]: 96.3 ± 1.5%

Compound: Cn1cc(-c2cnc3ccc(NC(=O)Nc4ccc(F)c(Cl)c4)cc3n2)cn1 [42-065]
TNFα induced NFκB transcription activity % Inhibition [1]: 85.3 ± 2.8%

Compound: Cc1cccc(NC(=O)Nc2ccc3ncc(-c4cnn(C)c4)nc3c2)c1 [42-066]
TNFα induced NFκB transcription activity % Inhibition [1]: Inactive

Compound: Cn1cc(-c2cnc3ccc(NC(=O)Nc4cccc(C(F)(F)F)c4)cc3n2)cn1 [42-071]
TNFα induced NFκB transcription activity % Inhibition [1]: 80.5 ± 2.5%

Compound: Cn1cc(-c2cnc3ccc(NC(=O)Nc4ccc5c(c4)OCO5)cc3n2)cn1 [42-072]
TNFα induced NFκB transcription activity % Inhibition [1]: inactive

Compound: Cn1cc(-c2cnc3ccc(NC(=O)Nc4ccc5c(c4)OCCO5)cc3n2)cn1 [42-073]
TNFα induced NFκB transcription activity % Inhibition [1]: inactive

Compound: Cc1cc(NC(=O)Nc2ccc3ncc(-c4cnn(C)c4)nc3c2)ccc1F [42-074]
TNFα induced NFκB transcription activity % Inhibition [1]: 10.4 ± 3.9%

Compound: COc1cccc(NC(=O)Nc2ccc3ncc(-c4cnn(C)c4)nc3c2)c1 [42-076]
TNFα induced NFκB transcription activity % Inhibition [1]: 49.7 ± 2.6%

Compound: Cn1cc(-c2cnc3ccc(NC(=O)Nc4ccc5sccc5c4)cc3n2)cn1 [42-077]
TNFα induced NFκB transcription activity % Inhibition [1]: inactive

Compound: COc1cc(NC(=O)Nc2ccc3ncc(-c4cnn(C)c4)nc3c2)ccc1F [42-078]
TNFα induced NFκB transcription activity % Inhibition [1]: 33.5 ± 3.7%

Compound: Cn1cc(-c2cnc3ccc(NC(=O)Nc4cccc(OC(F)(F)F)c4)cc3n2)cn1 [42-81B]
TNFα induced NFκB transcription activity % Inhibition [1]: 60.9 ± 2.9%

Compound: Cn1cc(-c2cnc3ccc(NC(=O)Nc4ccc5c(c4)CCC5)cc3n2)cn1 [42-091]
TNFα induced NFκB transcription activity % Inhibition [1]: inactive

Compound: Cn1cc(-c2cnc3ccc(NC(=O)Nc4ccc(F)c(OC(F)(F)F)c4)cc3n2)cn1 [42-096]
TNFα induced NFκB transcription activity % Inhibition [1]: 64.6 ± 3.3%

Compound: Cn1cc(-c2cnc3ccc(NC(=O)Nc4ccc5c(c4)CCO5)cc3n2)cn1 [42-097]
TNFα induced NFκB transcription activity % Inhibition [1]: inactive
